In patent publication US9869616B2, “Hydrogel encapsulated cell patterning and transferring method and cell-based biosensor using the same” (UNIST ACADEMY-INDUSTRY RESEARCH CORPORATION, priority 2011, dated 2018):

Assays:
[1] = test system: strain DH10B with plasmid pTrc99A-gfp; experiment: Extracellular induction of hydrogel-encapsulated cells with pTrc99A-gfp (GFP expression) by the HPT method; type: cell-based, Escherichia coli; settings: 1 mM IPTG in agarose substrate; average of 10 hydrogel microparticles; GFP produced until 8 hours
Procedure: Competent cells of the MG1655 and DH10B were transformed with synthetically engineered genetic circuits. Some plasmids were transferred from the Registry of Standard Biological Parts, and the others were constructed in the experiment with different antibiotic resistance marker genes. For the growth of these strains, each Escherichia coli culture was grown overnight on M 9 agar solid medium plates with appropriate antibiotics at 35° C. A single colony was used to inoculate 5 mL M9 media with 1% glucose, 1% tryptone, and either 100 μg/mL ampicillin or 30 μg/mL chloramphenicol. Thereafter, the cultures were then grown overnight (16 hours) with vigorous aeration (200 rpm in a rotary shaker), and OD600=1.5-2 cells (1-2 mL) were centrifuged at 5000 rpm for 5 min. The obtained pellet was resuspended with fresh M9 media to give bacterial suspensions with desired cell densities. […]
The images of cell patterns were taken using a stereomicroscope (SZX16, Olympus, Japan) equipped with a CCD camera (DP72, Olympus, Japan) and a fluorescent light source (Xcite-200, ExFo Photonics solutions Inc., Mississauga, Canada) operated by the DP2-BSW software (Olympus, Japan). […] All image processing and quantification of fluorescent intensities were performed using Image J. (NIH, USA), and then results were plotted using Origin 7.1 (OriginLab, Northampton, Mass., USA). […]

[2] = test system: araBAD promoter (PBAD) of pZBRG; experiment: Induction of RFP from the genetic circuit pZBRG (araBAD promoter) in hydrogel-encapsulated cells; type: cell-based, Escherichia coli

| Structure (SMILES) | gene expression level (average GFP fluorescent intensity) [1] [AU] | RFP expression of patterned cells ([2]; 400 mM arabinose in agarose substrate, in 8 hours) | threshold concentration (inducer gradient) ([2]; RFP gradient reaches saturated values in about 10 hours) | cross-talk on simultaneous induction (RFP) ([2]; both tetracycline (1 μM) and arabinose (400 μM)) | fluorescent signals detected, separate induction ([2]; only arabinose (400 μM) in agarose substrate) |
| --- | --- | --- | --- | --- | --- |
| CC(C)S[C@@H]1O[C@H](CO)[C@H](O)[C@H](O)[C@H]1O [IPTG, isopropyl-beta-D-thiogalactopyranoside] | 40 | – | – | – | – |
| O=C[C@@H](O)[C@H](O)[C@H](O)CO [arabinose] | – | activated to express red fluorescent protein (RFP) | relatively high | no significant cross-talk was observed | only RFP signals were detected |
